Tests used:
Assay type in all cases: in vivo
[1] = system: Myzus persicae (Green Peach Aphid); assay: Example B5: Myzus persicae (green peach aphid), feeding/contact activity, sprayed sunflower leaf discs; details: foliar, 144 h, application rate of 200 ppm, aphid population of mixed ages, 6 days after infestation
Description: Example B5: Myzus persicae (Green Peach Aphid). Feeding/Contact Activity
Sunflower leaf discs were placed onto agar in a 24-well microtiter plate and sprayed with aqueous test solutions prepared from 10′000 ppm DMSO stock solutions. After drying, the leaf discs were infested with an aphid population of mixed ages. The samples were assessed for mortality 6 days after infestation.

[2] = system: Myzus persicae (Green Peach Aphid); assay: Example B8: Myzus persicae (green peach aphid), systemic activity, pea seedling roots in test solution; details: 144 h, test rate of 24 ppm, aphid population of mixed ages, 6 days after placing seedlings into test solutions
Description: Example B8: Myzus persicae (Green Peach Aphid). Systemic Activity
Roots of pea seedlings infested with an aphid population of mixed ages were placed directly into aqueous test solutions prepared from 10′000 DMSO stock solutions. The samples were assessed for mortality 6 days after placing seedlings into test solutions.

[3] = system: Frankliniella occidentalis (Western Flower Thrips); assay: Example B3: Frankliniella occidentalis (western flower thrips), sprayed sunflower leaf discs; details: foliar, 168 h, application rate of 200 ppm, population of mixed ages, 7 days after infestation
Description: Example B3: Frankliniella occidentalis (Western Flower Thrips
Sunflower leaf discs were placed on agar in 24-well microtiter plates and sprayed with aqueous test solutions prepared from […] stock solutions. After drying the leaf discs were infested with a Frankliniella population of mixed ages. The samples were assessed for mortality 7 days after infestation.

[4] = system: Diabrotica balteata (Corn Root Worm); assay: Example B1: Diabrotica balteata (corn root worm), sprayed maize sprouts on agar, L2 larvae; details: 96 h, application rate of 200 ppm, 4 days after infestation, in comparison to untreated samples, read-out: effect in at least one of the two categories (mortality or growth inhibition)
Description: Example B1: Diabrotica balteata (Corn Root Worm
Maize sprouts placed onto an agar layer in 24-well microtiter plates were treated with aqueous test solutions prepared from 10′000 ppm DMSO stock solutions by spraying. After drying, the plates were infested with L2 larvae (6 to 10 per well). The samples were assessed for mortality and growth inhibition in comparison to untreated samples 4 days after infestation.

[5] = system: Plutella xylostella (Diamond Back Moth); assay: Example B4: Plutella xylostella (diamond back moth), treated artificial diet, eggs; details: 192 h, application rate of 200 ppm, 8 days after infestation, in comparison to untreated samples, read-out: effect in at least one of the two categories (mortality or growth inhibition)
Description: Example B4: Plutella xylostella (Diamond Back Moth
24-well microtiter plates with artificial diet were treated with aqueous test solutions prepared from 10′000 ppm DMSO stock solutions by pipetting. After drying, Plutella eggs were pipetted through a plastic stencil onto a gel blotting paper and the plate was closed with it. The samples were assessed for mortality and growth inhibition in comparison to untreated samples 8 days after infestation.

[6] = system: Euschistus heros (Neotropical Brown Stink Bug); assay: Example B2: Euschistus heros (neotropical brown stink bug), sprayed soybean leaves, N2 nymphs; details: 120 h, application rate of 200 ppm, 5 days after infestation, in comparison to untreated samples, read-out: effect in at least one of the two categories (mortality or growth inhibition)
Description: Example B2: Euschistus heros (Neotropical Brown Stink Bug
Soybean leaves on agar in 24-well microtiter plates were sprayed with aqueous test solutions prepared from 10′000 ppm DMSO stock solutions. After drying the leaves were infested with N2 nymphs. The samples were assessed for mortality and growth inhibition in comparison to untreated samples 5 days after infestation.

[7] = system: Spodoptera littoralis (Egyptian Cotton Leaf Worm); assay: Example B7: Spodoptera littoralis (Egyptian cotton leaf worm), sprayed cotton leaf discs, L1 larvae; details: foliar, 72 h, application rate of 200 ppm, 3 days after infestation, in comparison to untreated samples
Summary of the method: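 Cotton leaf discs on agar were sprayed with aqueous test solutions made from 10′000 ppm DMSO stocks, dried, and infested with five L1 larvae. Mortality, anti-feeding and growth inhibition were scored against untreated samples 3 days after infestation; control means any category exceeds the untreated sample.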

[8] = system: Bemisia tabaci (Cotton White Fly); assay: Example B6: Bemisia tabaci (cotton white fly), feeding/contact activity, sprayed cotton leaf discs; details: foliar, 144 h, application rate of 200 ppm, adult white flies, 6 days after incubation
Description: Example B6: Bemisia tabaci (Cotton White Fly). Feeding/Contact Activity
Cotton leaf discs were placed on agar in 24-well microtiter plates and sprayed with aqueous test solutions prepared from 10′000 ppm DMSO stock solutions. After drying the leaf discs were infested with adult white flies. The samples were checked for mortality 6 days after incubation.

CCS(=O)(=O)c1cc(C2(C#N)CC2)cnc1-c1nc2cc(S(=N)(=O)C(F)(F)F)cnc2n1C (stereo not drawn) [P21, 1-[5-ethylsulfonyl-6-[3-methyl-6-(trifluoromethylsulfonimidoyl)imidazo[4,5-b]pyridin-2-yl]-3-pyridyl]cyclopropanecarbonitrile]
≥ 80%: mortality at 200 ppm [1] | mortality at 24 ppm [2] | mortality at 200 ppm [3] | percent effect (mortality or growth inhibition) at 200 ppm [4] | percent effect (mortality or growth inhibition) at 200 ppm [5] | effect (mortality or growth inhibition) at 200 ppm [6] | percent control (mortality, anti-feeding effect or growth inhibition) at 200 ppm [7]

CCS(=O)(=O)c1cc(C2(C#N)CC2)cnc1-c1nc2cc(S(=O)(=NCC(F)(F)F)C(F)(F)F)ccc2n1C (stereo not drawn) [P34, 1-[5-ethylsulfonyl-6-[1-methyl-5-[N-(2,2,2-trifluoroethyl)-S-(trifluoromethyl)sulfonimidoyl]benzimidazol-2-yl]-3-pyridyl]cyclopropanecarbonitrile]
≥ 80%: percent effect (mortality or growth inhibition) at 200 ppm [4] | mortality at 200 ppm [8] | percent effect (mortality or growth inhibition) at 200 ppm [5] | effect (mortality or growth inhibition) at 200 ppm [6] | percent control (mortality, anti-feeding effect or growth inhibition) at 200 ppm [7]

CCN=S(=O)(c1ccc2oc(-c3ncc(OCC(C)(F)F)cc3S(=O)(=O)CC)nc2c1)C(F)(F)F (stereo not drawn) [P27, [2-[5-(2,2-difluoropropoxy)-3-ethylsulfonyl-2-pyridyl]-1,3-benzoxazol-5-yl]-ethylimino-oxo-(trifluoromethyl)-λ^6-sulfane]
≥ 80%: mortality at 200 ppm [1] | mortality at 200 ppm [3] | percent effect (mortality or growth inhibition) at 200 ppm [4] | percent effect (mortality or growth inhibition) at 200 ppm [5] | effect (mortality or growth inhibition) at 200 ppm [6] | percent control (mortality, anti-feeding effect or growth inhibition) at 200 ppm [7]

CCS(=O)(=O)c1cc(OCC(C)(F)F)cnc1-c1nc2cc(S(=N)(=O)C(F)(F)F)ccc2o1 (stereo not drawn) [P26, [2-[5-(2,2-difluoropropoxy)-3-ethylsulfonyl-2-pyridyl]-1,3-benzoxazol-5-yl]-imino-oxo-(trifluoromethyl)-λ^6-sulfane]
≥ 80%: mortality at 200 ppm [1] | mortality at 200 ppm [3] | percent effect (mortality or growth inhibition) at 200 ppm [4] | percent effect (mortality or growth inhibition) at 200 ppm [5] | effect (mortality or growth inhibition) at 200 ppm [6] | percent control (mortality, anti-feeding effect or growth inhibition) at 200 ppm [7]

CCN=S(=O)(c1cnc2c(c1)nc(-c1ncc(C3(C#N)CC3)cc1S(=O)(=O)CC)n2C)C(F)(F)F (stereo not drawn) [P20, 1-[5-ethylsulfonyl-6-[6-[N-ethyl-S-(trifluoromethyl)sulfonimidoyl]-3-methyl-imidazo[4,5-b]pyridin-2-yl]-3-pyridyl]cyclopropanecarbonitrile]
≥ 80%: mortality at 200 ppm [1] | mortality at 24 ppm [2] | mortality at 200 ppm [3] | percent effect (mortality or growth inhibition) at 200 ppm [4] | percent effect (mortality or growth inhibition) at 200 ppm [5] | effect (mortality or growth inhibition) at 200 ppm [6] | percent control (mortality, anti-feeding effect or growth inhibition) at 200 ppm [7]

CCN=S(=O)(c1ccc2oc(-c3ncc(N=S(C)(C)=O)cc3S(=O)(=O)CC)nc2c1)C(F)(F)F (stereo not drawn) [P2, [2-[5-[[dimethyl(oxo)-λ^6-sulfanylidene]amino]-3-ethylsulfonyl-2-pyridyl]-1,3-benzoxazol-5-yl]-ethylimino-oxo-(trifluoromethyl)-λ^6-sulfane]
≥ 80%: mortality at 200 ppm [3] | percent effect (mortality or growth inhibition) at 200 ppm [4] | percent effect (mortality or growth inhibition) at 200 ppm [5] | effect (mortality or growth inhibition) at 200 ppm [6] | percent control (mortality, anti-feeding effect or growth inhibition) at 200 ppm [7]

CCS(=O)(=O)c1cc(C2(C#N)CC2)cnc1-c1nc2cc(S(=N)(=O)C(F)(F)F)ccc2o1 (stereo not drawn) [P7, 1-[5-ethylsulfonyl-6-[5-(trifluoromethylsulfonimidoyl)-1,3-benzoxazol-2-yl]-3-pyridyl]cyclopropanecarbonitrile]
≥ 80%: percent effect (mortality or growth inhibition) at 200 ppm [4] | mortality at 200 ppm [8] | percent effect (mortality or growth inhibition) at 200 ppm [5] | effect (mortality or growth inhibition) at 200 ppm [6] | percent control (mortality, anti-feeding effect or growth inhibition) at 200 ppm [7]

CCS(=O)(=O)c1cc(-c2nccc(C(F)(F)F)n2)cnc1-c1nc2cc(S(=N)(=O)C(F)(F)F)ccc2o1 (stereo not drawn) [P40, [2-[3-ethylsulfonyl-5-[4-(trifluoromethyl)pyrimidin-2-yl]-2-pyridyl]-1,3-benzoxazol-5-yl]-imino-oxo-(trifluoromethyl)-λ^6-sulfane]
≥ 80%: mortality at 200 ppm [3] | percent effect (mortality or growth inhibition) at 200 ppm [4] | percent effect (mortality or growth inhibition) at 200 ppm [5] | effect (mortality or growth inhibition) at 200 ppm [6] | percent control (mortality, anti-feeding effect or growth inhibition) at 200 ppm [7]

CCN=S(=O)(c1ccc2c(c1)nc(-c1ncc(C3(C#N)CC3)cc1S(=O)(=O)CC)n2C)C(F)(F)F (stereo not drawn) [P32, 1-[5-ethylsulfonyl-6-[5-[N-ethyl-S-(trifluoromethyl)sulfonimidoyl]-1-methyl-benzimidazol-2-yl]-3-pyridyl]cyclopropanecarbonitrile]
≥ 80%: mortality at 24 ppm [2] | percent effect (mortality or growth inhibition) at 200 ppm [4] | percent effect (mortality or growth inhibition) at 200 ppm [5] | effect (mortality or growth inhibition) at 200 ppm [6] | percent control (mortality, anti-feeding effect or growth inhibition) at 200 ppm [7]

CCS(=O)(=O)c1cc(C2(C#N)CC2)cnc1-c1nc2cc(S(=N)(=O)C(F)(F)F)ccc2n1C (stereo not drawn) [P33, 1-[5-ethylsulfonyl-6-[1-methyl-5-(trifluoromethylsulfonimidoyl)benzimidazol-2-yl]-3-pyridyl]cyclopropanecarbonitrile]
≥ 80%: percent effect (mortality or growth inhibition) at 200 ppm [4] | mortality at 200 ppm [8] | percent effect (mortality or growth inhibition) at 200 ppm [5] | effect (mortality or growth inhibition) at 200 ppm [6] | percent control (mortality, anti-feeding effect or growth inhibition) at 200 ppm [7]

CCS(=O)(=O)c1cccnc1-c1nc2cc(S(=O)(=NC(C)=O)C(F)(F)F)ccc2o1 (stereo not drawn) [P17, N-[[2-(3-ethylsulfonyl-2-pyridyl)-1,3-benzoxazol-5-yl]-oxo-(trifluoromethyl)-λ^6-sulfanylidene]acetamide]
≥ 80%: mortality at 200 ppm [1] | percent effect (mortality or growth inhibition) at 200 ppm [4] | mortality at 200 ppm [8] | percent effect (mortality or growth inhibition) at 200 ppm [5] | effect (mortality or growth inhibition) at 200 ppm [6] | percent control (mortality, anti-feeding effect or growth inhibition) at 200 ppm [7]

CCS(=O)(=O)c1cc(C2CC2)cnc1-c1nc2cc(S(=N)(=O)C(F)(F)F)ccc2o1 (stereo not drawn) [P12, [2-(5-cyclopropyl-3-ethylsulfonyl-2-pyridyl)-1,3-benzoxazol-5-yl]-imino-oxo-(trifluoromethyl)-λ^6-sulfane]
≥ 80%: mortality at 200 ppm [1] | mortality at 200 ppm [3] | percent effect (mortality or growth inhibition) at 200 ppm [4] | percent effect (mortality or growth inhibition) at 200 ppm [5] | effect (mortality or growth inhibition) at 200 ppm [6] | percent control (mortality, anti-feeding effect or growth inhibition) at 200 ppm [7]

CCS(=O)(=O)c1cc(N=S(C)(C)=O)cnc1-c1nc2cc(S(=N)(=O)C(F)(F)F)ccc2o1 (stereo not drawn) [P1, [2-[5-[[dimethyl(oxo)-λ^6-sulfanylidene]amino]-3-ethylsulfonyl-2-pyridyl]-1,3-benzoxazol-5-yl]-imino-oxo-(trifluoromethyl)-λ^6-sulfane]
≥ 80%: mortality at 200 ppm [1] | mortality at 200 ppm [3] | percent effect (mortality or growth inhibition) at 200 ppm [4] | mortality at 200 ppm [8] | percent effect (mortality or growth inhibition) at 200 ppm [5] | effect (mortality or growth inhibition) at 200 ppm [6] | percent control (mortality, anti-feeding effect or growth inhibition) at 200 ppm [7]

Reference: US12503461B2, “Pesticidally active heterocyclic derivatives with sulfur and sulfoximine containing substituents” (SYNGENTA CROP PROTECTION AG, priority 2019, dated 2025)
